Drawing on patent US20240083853A1, “HSD17B13 INHIBITORS AND USES THEREOF” (FL2022-001, Inc., priority 2020, published 2024), this text covers IC50 for 38 compounds.

The pIC50 is −log10 of the IC50, conventionally taken in molar units.

In the test the target is T1, Recombinant human HSD17B13 enzyme (Homo sapiens, UniProt Q7Z5P4).
T1 sequence (Q7Z5P4 20-300): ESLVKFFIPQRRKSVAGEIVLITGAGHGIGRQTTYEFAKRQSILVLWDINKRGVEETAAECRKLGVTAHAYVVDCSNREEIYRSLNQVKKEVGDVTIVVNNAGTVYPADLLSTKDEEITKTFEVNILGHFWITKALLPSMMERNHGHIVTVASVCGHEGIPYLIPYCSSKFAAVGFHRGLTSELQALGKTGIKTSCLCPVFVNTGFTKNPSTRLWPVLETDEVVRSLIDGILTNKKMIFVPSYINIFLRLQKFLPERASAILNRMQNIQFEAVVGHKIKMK
In words: HSD17b13 NAD(P)H-Glo biochemical assay. Particulars: 50 uM estradiol, 1 mM NAD+, NAD(P)H-Glo luminescence; read-out: HSD17β13 IC50. The procedure, abridged:
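Recombinant human HSD17B13 in 20 mM Tris pH7.4 with 0.002% Tween-20 and 0.02% BSA was preincubated with inhibitor for 20 minutes at RT. The reaction ran 3 hours at 37° C with 50 uM estradiol and 1 mM NAD+ (final). NADH formed was detected by NAD(P)H-Glo luminescence after 1 hour at RT.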

Structures are written as SMILES. pIC50: −log10 of the molar value.

`COC1(C)CN(c2ccc(-n3ncc4cc(F)c(O)c(F)c43)cc2)C1` [Compound 20.19, 5,7-Difluoro-1-(4-(3-methoxy-3-methylazetidin-1-yl)phenyl)-1H-indazol-6-ol]: the pIC50 is above 7.00.

Take `Oc1c(F)cc2cnn(-c3ccc(N4CC5CC(C4)O5)cc3)c2c1F` [Compound 23.16, 1-(4-(6-Oxa-3-azabicyclo[3.1.1]heptan-3-yl)phenyl)-5,7-difluoro-1H-indazol-6-ol]: the pIC50 was 6.00 to 7.00. Turning to `Oc1cc(F)c2cnn(-c3ccc(-c4cccc(O)c4Br)cc3)c2c1` [Compound 2.9, 1-(2′-Bromo-3′-hydroxy-[1,1′-biphenyl]-4-yl)-4-fluoro-1H-indazol-6-ol], the negative-log IC50 (pIC50) was 4.52 to 6.00. As to `CC(C)N1CCC(c2ccc(-n3ncc4cc(F)c(O)c(F)c43)cc2)CC1` [Compound 27.8, 5,7-Difluoro-1-(4-(1-isopropylpiperidin-4-yl)phenyl)-1H-indazol-6-ol], the pIC50 was above 7.00. Regarding `Oc1c(F)cc2nnn(-c3ccc(N4CCO[C@@H](c5ccccc5)C4)cc3)c2c1F` [Compound 26.26, (S)-5,7-Difluoro-1-(4-(2-phenylmorpholino)phenyl)-1H-benzo[d][1,2,3]triazol-6-ol], the pIC50 was 6.00 to 7.00. Take `CS(=O)(=O)C1CCN(c2ccc(-n3ncc4cc(F)c(O)c(F)c43)cc2)CC1` [Compound 22.3, 5,7-Difluoro-1-(4-(4-(methylsulfonyl)piperidin-1-yl)phenyl)-1H-indazol-6-ol]: the pIC50 was 6.00 to 7.00. For `CS(=O)(=O)N1CCCN(c2ccc(-n3ncc4cc(F)c(O)c(F)c43)cc2)CC1` [Compound 23.14, 5,7-Difluoro-1-(4-(4-(methylsulfonyl)-1,4-diazepan-1-yl)phenyl)-1H-indazol-6-ol] the value was 6.00 to 7.00; for `CC1(C)CCN(c2ccc(-n3ncc4cc(F)c(O)c(F)c43)nc2)CC1` [Compound 26.3, 1-(5-(4,4-Dimethylpiperidin-1-yl)pyridin-2-yl)-5,7-difluoro-1H-indazol-6-ol], above 7.00; for `Oc1cccc(-c2ccc(-n3ncc4c(Cl)c(F)c(O)cc43)cc2)c1` [Compound 5, 4-Chloro-5-fluoro-1-(3′-hydroxy-[1,1′-biphenyl]-4-yl)-1H-indazol-6-ol], 6.00 to 7.00. `CS(=O)(=O)N1CCN(c2ccc(-n3ncc4ccc(O)c(F)c43)cc2)CC1` [Compound 21.11, 7-Fluoro-1-(4-(4-(methylsulfonyl)piperazin-1-yl)phenyl)-1H-indazol-6-ol]: the pIC50 is 6.00 to 7.00. With `CS(=O)(=O)N1CC=C(c2ccc(-n3ncc4cc(F)c(O)c(F)c43)cc2)CC1` [Compound 27.4, 5,7-Difluoro-1-(4-(1-(methylsulfonyl)-1,2,3,6-tetrahydropyridin-4-yl)phenyl)-1H-indazol-6-ol], the pIC50 was above 7.00. Regarding `CC(C)n1c(=O)n(-c2ccc(N3CCC(C)(C)CC3)cc2)c2c(F)c(O)c(F)cc21` [Compound 21.13, 3-(4-(4,4-Dimethylpiperidin-1-yl)phenyl)-4,6-difluoro-5-hydroxy-1-isopropyl-1H-benzo[d]imidazol-2(3H)-one], the pIC50 is 6.00 to 7.00. On to `Oc1c(F)cc2cnn(-c3ccc(N4CCC5(CC4)CNC5)cc3)c2c1F` [Compound 23.28, 1-(4-(2,7-Diazaspiro[3.5]nonan-7-yl)phenyl)-5,7-difluoro-1H-indazol-6-ol], for which the pIC50 was 6.00 to 7.00. In the case of `Oc1ccc(-c2ccc(-n3ncc4ccc(O)c(F)c43)cc2)cc1` [Compound 2.4, 7-Fluoro-1-(4′-hydroxy-[1,1′-biphenyl]-4-yl)-1H-indazol-6-ol], the pIC50 is 6.00 to 7.00. In the case of `Oc1c(F)cc2cnn(-c3ccc(N4CCOCC4)cc3)c2c1F` [Compound 23.3, 5,7-Difluoro-1-(4-morpholinophenyl)-1H-indazol-6-ol], the pIC50 is 6.00 to 7.00. With `CS(=O)(=O)C1CN(c2ccc(-n3cnc4cc(F)c(O)c(F)c43)cc2)C1` [Compound 20.15, 5,7-Difluoro-1-(4-(3-(methylsulfonyl)azetidin-1-yl)phenyl)-1H-benzo[d]imidazol-6-ol], the pIC50 was 4.52 to 6.00. For `Cc1cc(-c2ccc(O)cc2)ccc1-n1ncc2cc(F)c(O)cc21` [Compound 15.1, 5-Fluoro-1-(4′-hydroxy-3-methyl-[1,1′-biphenyl]-4-yl)-1H-indazol-6-ol] the value was 6.00 to 7.00. For `CC1(C)CCN(c2ccc(-n3ncc4cc(F)c(O)c(F)c43)cn2)CC1` [Compound 26, 1-(6-(4,4-Dimethylpiperidin-1-yl)pyridin-3-yl)-5,7-difluoro-1H-indazol-6-ol], the pIC50 is above 7.00.

For the compound `Oc1ccc(-c2ccc(-n3cnc4cc(F)c(O)cc43)cc2)cc1` [Compound 9, 5-Fluoro-1-(4′-hydroxy-[1,1′-biphenyl]-4-yl)-1H-benzo[d]imidazol-6-ol], the pIC50 is above 7.00. For `C[C@@H]1CN(c2ccc(-n3ncc4cc(F)c(O)c(F)c43)cc2)C[C@H](C)O1` [Compound 20.7, 1-(4-(cis-2,6-Dimethylmorpholino)phenyl)-5,7-difluoro-1H-indazol-6-ol] the value was above 7.00.

`Oc1c(F)cc2cnn(-c3ccc(-c4ccc(Cl)cc4)nc3)c2c1F` [Compound 18.2, 1-(6-(4-Chlorophenyl)pyridin-3-yl)-5,7-difluoro-1H-indazol-6-ol]: the negative logarithm of the IC50 (pIC50) was above 7.00. Consider `CC1(C)CN(c2ccc(-n3ncc4cc(F)c(O)c(F)c43)cc2)C1` [Compound 23.13, 1-(4-(3,3-Dimethylazetidin-1-yl)phenyl)-5,7-difluoro-1H-indazol-6-ol], for which the pIC50 is above 7.00. In the case of `Oc1cc2c(cnn2-c2ccc(-c3ccccc3Cl)cc2)cc1F` [Compound 13.6, 1-(2′-Chloro-[1,1′-biphenyl]-4-yl)-5-fluoro-1H-indazol-6-ol], the pIC50 was 6.00 to 7.00. For `CS(=O)(=O)N1CC2(CCN(c3ccc(-n4ncc5cc(F)c(O)c(F)c54)cc3)CC2)C1` [Compound 20.21, 5,7-Difluoro-1-(4-(2-(methylsulfonyl)-2,7-diazaspiro[3.5]nonan-7-yl)phenyl)-1H-indazol-6-ol] the value was 6.00 to 7.00. Next, `CS(=O)(=O)N1CCN(c2ccc(-n3ncc4cc(F)c(O)cc43)cc2)CC1` [Compound 21.2, 5-Fluoro-1-(4-(4-(methylsulfonyl)piperazin-1-yl)phenyl)-1H-indazol-6-ol]: 4.52 to 6.00. In the case of `CS(=O)(=O)NC1CN(c2ccc(-n3ncc4cc(F)c(O)cc43)cc2)C1` [Compound 21.1, N-(1-(4-(5-Fluoro-6-hydroxy-1H-indazol-1-yl)phenyl)azetidin-3-yl)methanesulfonamide], the pIC50 was 4.52 to 6.00.

For `CC1(C)CCN(c2ccc(-n3c(=O)[nH]c4cc(F)c(O)c(F)c43)cc2)CC1` [Compound 11, 1-(4-(4,4-Dimethylpiperidin-1-yl)phenyl)-5,7-difluoro-6-hydroxy-1H-benzo[d]imidazol-2(3H)-one], the pIC50 is above 7.00. As to `CC1CN(c2ccc(-n3ncc4cc(F)c(O)c(F)c43)cc2)CCO1` (centres unmarked) [Compound 20.4, 5,7-Difluoro-1-(4-(2-methylmorpholino)phenyl)-1H-indazol-6-ol], the pIC50 was above 7.00.

For `CC1(C)CCC(c2ccc(-n3ncc4cc(F)c(O)c(F)c43)cc2)CC1` [Compound 27, 1-(4-(4,4-Dimethylcyclohexyl)phenyl)-5,7-difluoro-1H-indazol-6-ol], the pIC50 was above 7.00. Take `CS(=O)(=O)N1CCN(c2ccc(-n3nc(F)c4cc(F)c(O)c(F)c43)cc2)CC1` [Compound 6, 3,5,7-Trifluoro-1-(4-(4-(methylsulfonyl)piperazin-1-yl)phenyl)-1H-indazol-6-ol]: the pIC50 was 6.00 to 7.00. On to `N#Cc1cccc(-c2ccc(-n3ncc4cc(F)c(O)cc43)cc2)c1` [Compound 13.17, 4′-(5-Fluoro-6-hydroxy-1H-indazol-1-yl)-[1,1′-biphenyl]-3-carbonitrile], for which the pIC50 is 6.00 to 7.00. Regarding `CC1(C)CCN(c2ccc(-n3ncc4cc(F)c(O)c(F)c43)cc2)C1` [Compound 23.11, 1-(4-(3,3-Dimethylpyrrolidin-1-yl)phenyl)-5,7-difluoro-1H-indazol-6-ol], the pIC50 was above 7.00. Next, `Oc1c(F)cc2cnn(-c3ccc(N4CCC(F)(F)CC4)cc3)c2c1F` [Compound 23.20, 1-(4-(4,4-Difluoropiperidin-1-yl)phenyl)-5,7-difluoro-1H-indazol-6-ol]: above 7.00; `Oc1c(F)cc2cnn(-c3ccc(N4CCC5(CCC5)CC4)cc3)c2c1F` [Compound 23.24, 1-(4-(7-Azaspiro[3.5]nonan-7-yl)phenyl)-5,7-difluoro-1H-indazol-6-ol]: above 7.00; `NS(=O)(=O)c1ccc(-c2ccc(-n3ncc4cc(F)c(O)cc43)cc2)cc1` [Compound 13.38, 4′-(5-Fluoro-6-hydroxy-1H-indazol-1-yl)-[1,1′-biphenyl]-4-sulfonamide]: above 7.00. Consider `C[C@@H]1CN(c2ccc(-n3ncc4cc(F)c(O)c(F)c43)cc2)C[C@@H](C)O1` [Compound 24.10, 1-(4-((2R,6R)-2,6-Dimethylmorpholino)phenyl)-5,7-difluoro-1H-indazol-6-ol], for which the pIC50 is above 7.00.

For the compound `O=S1(=O)CCC2(CC1)CN(c1ccc(-n3ncc4cc(F)c(O)c(F)c43)cc1)C2` [Compound 24.11, 2-(4-(5,7-Difluoro-6-hydroxy-1H-indazol-1-yl)phenyl)-7-thia-2-azaspiro[3.5]nonane 7,7-dioxide], the negative logarithm of the IC50 (pIC50) was 6.00 to 7.00. For `Oc1c(F)cc2nnn(-c3ccc(N4CC5(CCOCC5)C4)cc3)c2c1F` [Compound 20.10, 1-(4-(7-Oxa-2-azaspiro[3.5]nonan-2-yl)phenyl)-5,7-difluoro-1H-benzo[d][1,2,3]triazol-6-ol], the pIC50 was above 7.00.
